Test system: MV-4-11 cells
Experiment: Gene expression microarray analysis (Affymetrix PrimeView) and GSEA
Format: cell-based, human
Design: RFU PODN (11730768_x_at) / Fold change /veh PODN (11730768_x_at) / RFU LINC00158 (11744669_a_at) / Fold change /veh LINC00158 (11744669_a_at) / RFU DUSP10 (11751237_a_at) / Fold change /veh DUSP10 (11751237_a_at) / RFU ID3 (11757404_x_at) / Fold change /veh ID3 (11757404_x_at) / RFU PLEKHG5 (11737974_s_at) / Fold change /veh PLEKHG5 (11737974_s_at) / RFU LRRC4B (11730491_at) / Fold change /veh LRRC4B (11730491_at) / RFU GIMAP4 (11747438_a_at) / Fold change /veh GIMAP4 (11747438_a_at) / RFU KRT8 (11758183_x_at) / Fold change /veh KRT8 (11758183_x_at) / RFU CNN1 (11734310_a_at) / Fold change /veh CNN1 (11734310_a_at) / RFU VPS37D (11726825_at) / Fold change /veh VPS37D (11726825_at) / RFU C10orf10 (11716522_x_at) / Fold change /veh C10orf10 (11716522_x_at) / RFU KIR2DL2 /// KIR2DL4 /// KIR2DL5A /// KIR2DL5B /// KIR2DS1 /// KIR2DS2 /// KIR2DS3 /// KIR2DS4 /// KIR3DL3 /// KIR3DL3 /// KIR3DS1 (11738374_at) / Fold change /veh KIR2DL2 /// KIR2DL4 /// KIR2DL5A /// KIR2DL5B /// KIR2DS1 /// KIR2DS2 /// KIR2DS3 /// KIR2DS4 /// KIR3DL3 /// KIR3DL3 /// KIR3DS1 (11738374_at) / RFU C1QL1 (11718748_at) / Fold change /veh C1QL1 (11718748_at) / RFU TMPRSS4 (11747572_a_at) / Fold change /veh TMPRSS4 (11747572_a_at) / RFU HAMP (11756126_x_at) / Fold change /veh HAMP (11756126_x_at) / RFU RNFT2 (11725882_a_at) / Fold change /veh RNFT2 (11725882_a_at) / RFU NR4A2 (11747474_a_at) / Fold change /veh NR4A2 (11747474_a_at) / RFU ABCC12 (11746883_a_at) / Fold change /veh ABCC12 (11746883_a_at) / RFU TMEM136 (11760407_x_at) / Fold change /veh TMEM136 (11760407_x_at) / RFU CLDN22 /// WWC2 (11732394_at) / Fold change /veh CLDN22 /// WWC2 (11732394_at) / RFU HLA-DPB1 (11760878_x_at) / Fold change /veh HLA-DPB1 (11760878_x_at) / RFU SPINT1 (11716480_a_at) / Fold change /veh SPINT1 (11716480_a_at) / RFU GAP43 (11754022_s_at) / Fold change /veh GAP43 (11754022_s_at) / RFU A4GNT (11735810_at) / Fold change /veh A4GNT (11735810_at) / RFU PRB3 (11715151_x_at) / Fold change /veh PRB3 (11715151_x_at) / RFU TUBB4B (11761932_at) / Fold change /veh TUBB4B (11761932_at) / RFU CAPN14 (11732068_a_at) / Fold change /veh CAPN14 (11732068_a_at) / RFU TMCC2 (11721928_a_at) / Fold change /veh TMCC2 (11721928_a_at) / RFU IRGQ (11745062_a_at) / Fold change /veh IRGQ (11745062_a_at) / RFU FAM174B (11720279_a_at) / Fold change /veh FAM174B (11720279_a_at) / RFU TMPRSS4 (11748680_a_at) / Fold change /veh TMPRSS4 (11748680_a_at) / RFU FAM212B (11763350_a_at) / Fold change /veh FAM212B (11763350_a_at) / RFU PLEKHG5 (11743358_a_at) / Fold change /veh PLEKHG5 (11743358_a_at) / RFU ZSCAN30 (11745921_a_at) / Fold change /veh ZSCAN30 (11745921_a_at) / RFU CMKLR1 (11741424_a_at) / Fold change /veh CMKLR1 (11741424_a_at) / RFU LOC101060620 /// MAPK8IP1 (11723275_at) / Fold change /veh LOC101060620 /// MAPK8IP1 (11723275_at) / RFU SPTSSB (11747773_x_at) / Fold change /veh SPTSSB (11747773_x_at) / RFU PRSS12 (11739890_at) / Fold change /veh PRSS12 (11739890_at) / RFU BIN1 (11741810_x_at) / Fold change /veh BIN1 (11741810_x_at) / RFU WNT11 (11732464_a_at) / Fold change /veh WNT11 (11732464_a_at) / RFU C10orf10 (11716521_a_at) / Fold change /veh C10orf10 (11716521_a_at) / RFU C5orf56 (11738089_at) / Fold change /veh C5orf56 (11738089_at) / RFU CYB561 (11721691_x_at) / Fold change /veh CYB561 (11721691_x_at) / RFU ANKRD19P (11752326_a_at) / Fold change /veh ANKRD19P (11752326_a_at) / RFU OR2T12 /// OR2T33 /// OR2T8 (11738714_s_at) / Fold change /veh OR2T12 /// OR2T33 /// OR2T8 (11738714_s_at) / RFU VCAN (11748164_a_at) / Fold change /veh VCAN (11748164_a_at) / RFU JSRP1 (11732532_at) / Fold change /veh JSRP1 (11732532_at) / RFU KRTAP10-11 (11738290_x_at) / Fold change /veh KRTAP10-11 (11738290_x_at) / RFU MYO3A (11730013_a_at) / Fold change /veh MYO3A (11730013_a_at) / RFU EBF3 (11725865_a_at) / Fold change /veh EBF3 (11725865_a_at) / RFU CAMK2N1 (11719241_x_at) / Fold change /veh CAMK2N1 (11719241_x_at) / RFU C5orf56 (11738088_a_at) / Fold change /veh C5orf56 (11738088_a_at) / RFU OLFML3 (11715873_a_at) / Fold change /veh OLFML3 (11715873_a_at) / RFU LOC100653217 /// NTM (11731650_a_at) / Fold change /veh LOC100653217 /// NTM (11731650_a_at) / RFU MAPK11 (11762145_a_at) / Fold change /veh MAPK11 (11762145_a_at) / RFU FIZ1 (11724087_x_at) / Fold change /veh FIZ1 (11724087_x_at) / RFU OASL (11726364_x_at) / Fold change /veh OASL (11726364_x_at) / RFU SOX15 (11748057_x_at) / Fold change /veh SOX15 (11748057_x_at) / RFU CD79A (11719716_a_at) / Fold change /veh CD79A (11719716_a_at) / RFU HIST1H1D (11736915_at) / Fold change /veh HIST1H1D (11736915_at) / RFU CASKIN2 (11723855_a_at) / Fold change /veh CASKIN2 (11723855_a_at) / RFU LOC730098 (11760151_x_at) / Fold change /veh LOC730098 (11760151_x_at) / RFU OR4N2 (11742367_at) / Fold change /veh OR4N2 (11742367_at) / RFU PRRT2 (11749266_a_at) / Fold change /veh PRRT2 (11749266_a_at) / RFU SNX32 (11753110_a_at) / Fold change /veh SNX32 (11753110_a_at) / RFU CDHR5 (11726645_a_at) / Fold change /veh CDHR5 (11726645_a_at) / RFU RCAN1 (11760418_a_at) / Fold change /veh RCAN1 (11760418_a_at) / RFU FAM167A (11723789_a_at) / Fold change /veh FAM167A (11723789_a_at) / RFU FAM26E (11764081_at) / Fold change /veh FAM26E (11764081_at) / RFU ISYNA1 (11749810_s_at) / Fold change /veh ISYNA1 (11749810_s_at) / RFU ACY1 (11761880_at) / Fold change /veh ACY1 (11761880_at) / RFU 11764098_at / Fold change /veh 11764098_at / RFU SAMD14 (11745864_x_at) / Fold change /veh SAMD14 (11745864_x_at) / RFU NPB (11741838_a_at) / Fold change /veh NPB (11741838_a_at) / RFU TMPRSS6 (11731388_a_at) / Fold change /veh TMPRSS6 (11731388_a_at) / RFU KRTAP10-2 (11738614_at) / Fold change /veh KRTAP10-2 (11738614_at) / RFU ARHGAP8 /// PRR5-ARHGAP8 (11727945_x_at) / Fold change /veh ARHGAP8 /// PRR5-ARHGAP8 (11727945_x_at) / RFU KRTAP5-7 /// NADSYN1 (11734609_at) / Fold change /veh KRTAP5-7 /// NADSYN1 (11734609_at) / RFU RASL12 (11751679_a_at) / Fold change /veh RASL12 (11751679_a_at) / RFU CDKN2B (11736163_a_at) / Fold change /veh CDKN2B (11736163_a_at) / RFU PRF1 (11729649_at) / Fold change /veh PRF1 (11729649_at) / RFU, ZNF638 /// ZNF638-IT1 / Fold change vs veh, ZNF638 /// ZNF638-IT1 / RFU, PANK3 / Fold change vs veh, PANK3 / RFU, SH3YL1 / Fold change vs veh, SH3YL1 / RFU, ZEB2 / Fold change vs veh, ZEB2 / RFU, NRIP1 / Fold change vs veh, NRIP1 / RFU, PTTG1IP / Fold change vs veh, PTTG1IP / RFU, CAPN2 / Fold change vs veh, CAPN2 / RFU, MED14 / Fold change vs veh, MED14 / RFU, SNORA58 / Fold change vs veh, SNORA58 / RFU, C1orf63 / Fold change vs veh, C1orf63 / RFU, LRRFIP1 / Fold change vs veh, LRRFIP1 / RFU, NDUFAF7 / Fold change vs veh, NDUFAF7 / RFU, SLC12A2 / Fold change vs veh, SLC12A2 / RFU, IBTK / Fold change vs veh, IBTK / RFU, ESF1 / Fold change vs veh, ESF1 / Fold change vs veh, TMEM50B / RFU, TAOK1 / Fold change vs veh, TAOK1 / RFU, ACBD3 / Fold change vs veh, ACBD3 / RFU, TMA16 / Fold change vs veh, TMA16 / RFU, RWDD3 / Fold change vs veh, RWDD3 / RFU, BCAT1 / Fold change vs veh, BCAT1 / RFU, EDEM3 / Fold change vs veh, EDEM3 / RFU, TMEM33 / Fold change vs veh, TMEM33 / RFU, WDR75 / Fold change vs veh, WDR75 / RFU, AHCTF1 / Fold change vs veh, AHCTF1 / RFU, TFRC / Fold change vs veh, TFRC / RFU, ZDHHC17 / Fold change vs veh, ZDHHC17 / RFU, NOM1 / Fold change vs veh, NOM1 / RFU, ARL8B / Fold change vs veh, ARL8B / RFU, ZBTB11 / Fold change vs veh, ZBTB11 / RFU, TAMM41 / Fold change vs veh, TAMM41 / RFU, KIAA1704 /// LOC100996395 / Fold change vs veh, KIAA1704 /// LOC100996395 / RFU, ING1 / Fold change vs veh, ING1 / RFU, TRMT61B / Fold change vs veh, TRMT61B / RFU, FUBP3 / Fold change vs veh, FUBP3 / RFU, TP53 / Fold change vs veh, TP53 / RFU, TNKS2 / Fold change vs veh, TNKS2 / RFU, ZFP14 / Fold change vs veh, ZFP14 / RFU, ACTR2 / Fold change vs veh, ACTR2 / RFU, PPP3R1 / Fold change vs veh, PPP3R1 / RFU, PIK3R1 / Fold change vs veh, PIK3R1 / RFU, HNRNPA1 / Fold change vs veh, HNRNPA1 / RFU, RNF170 / Fold change vs veh, RNF170 / RFU, ZNF28 / Fold change vs veh, ZNF28 / RFU, RNGTT / Fold change vs veh, RNGTT / RFU, OGT / Fold change vs veh, OGT / RFU, BRD1 / Fold change vs veh, BRD1 / RFU, MARS / Fold change vs veh, MARS / RFU, ZNF655 / Fold change vs veh, ZNF655 / RFU, FAHD1 / Fold change vs veh, FAHD1 / RFU, BDP1 / Fold change vs veh, BDP1 / RFU, LRRCC1 / Fold change vs veh, LRRCC1 / RFU, ARID1A / Fold change vs veh, ARID1A / RFU, ZNF146 / Fold change vs veh, ZNF146 / RFU, ZNF330 / Fold change vs veh, ZNF330 / RFU, GPN3 / Fold change vs veh, GPN3 / RFU, C9orf123 / Fold change vs veh, C9orf123 / RFU, N4BP2L2 / Fold change vs veh, N4BP2L2 / RFU, ARFIP1 / Fold change vs veh, ARFIP1 / RFU, FAM179B / Fold change vs veh, FAM179B / RFU, BCL10 / Fold change vs veh, BCL10 / RFU, UHRF1BP1L / Fold change vs veh, UHRF1BP1L / RFU, BET1 / Fold change vs veh, BET1 / RFU, CNOT2 / Fold change vs veh, CNOT2 / RFU, ZNF268 / Fold change vs veh, ZNF268 / Fold change vs veh, ZNF507 / RFU, DGCR2 / Fold change vs veh, DGCR2 / RFU, WDSUB1 / Fold change vs veh, WDSUB1 / Fold change vs veh, HSP90B1 /// MIR3652 / RFU, ADSS / Fold change vs veh, ADSS / RFU, GK / Fold change vs veh, GK / RFU, ZNF148 / Fold change vs veh, ZNF148 / RFU, TAF9 / Fold change vs veh, TAF9 / RFU, SLC1A5 / Fold change vs veh, SLC1A5 / RFU, SLMO2 / Fold change vs veh, SLMO2 / RFU, ABCC4 / Fold change vs veh, ABCC4 / RFU, LOC101060439 /// RAP1B / Fold change vs veh, LOC101060439 /// RAP1B / RFU, RFX7 / Fold change vs veh, RFX7 / RFU, GTPBP10 / Fold change vs veh, GTPBP10 / RFU, CNEP1R1 / Fold change vs veh, CNEP1R1 / RFU, BIVM-ERCC5 /// ERCC5 / Fold change vs veh, BIVM-ERCC5 /// ERCC5 / RFU, ILF3 / Fold change vs veh, ILF3 / RFU 11762660_at / Fold change /veh 11762660_at / RFU VCAN (11757783_s_at) / Fold change /veh VCAN (11757783_s_at) / RFU DDX43 (11728927_at) / Fold change /veh DDX43 (11728927_at) / RFU KRT8 (11758188_x_at) / Fold change /veh KRT8 (11758188_x_at) / RFU NKD1 (11759106_at) / Fold change /veh NKD1 (11759106_at) / RFU SRD5A1 (11742802_a_at) / Fold change /veh SRD5A1 (11742802_a_at) / RFU TPSAB1 /// TPSB2 (11721975_s_at) / Fold change /veh TPSAB1 /// TPSB2 (11721975_s_at) / RFU GSTM3 (11746129_a_at) / Fold change /veh GSTM3 (11746129_a_at) / RFU IL23R (11737362_x_at) / Fold change /veh IL23R (11737362_x_at) / RFU TMEM51 (11727254_a_at) / Fold change /veh TMEM51 (11727254_a_at) / RFU PIWIL2 (11732686_x_at) / Fold change /veh PIWIL2 (11732686_x_at) / RFU ORM1 (11744905_x_at) / Fold change /veh ORM1 (11744905_x_at) / RFU CCDC152 (11743942_at) / Fold change /veh CCDC152 (11743942_at) / RFU ECM1 (11717891_a_at) / Fold change /veh ECM1 (11717891_a_at) / RFU IL23R (11748794_a_at) / Fold change /veh IL23R (11748794_a_at) / RFU TNFAIP8L3 (11732012_x_at) / Fold change /veh TNFAIP8L3 (11732012_x_at) / RFU MBOAT4 (11741988_at) / Fold change /veh MBOAT4 (11741988_at) / RFU 11764193_at / Fold change /veh 11764193_at / RFU TMEM53 (11763286_at) / Fold change /veh TMEM53 (11763286_at) / RFU MAGEB2 (11727129_at) / Fold change /veh MAGEB2 (11727129_at) / RFU TMEM200A (11744735_a_at) / Fold change /veh TMEM200A (11744735_a_at) / RFU CCDC152 (11751479_a_at) / Fold change /veh CCDC152 (11751479_a_at) / RFU FAM211A (11726209_a_at) / Fold change /veh FAM211A (11726209_a_at) / RFU RGS16 (11746705_a_at) / Fold change /veh RGS16 (11746705_a_at) / RFU VCAN (11755009_s_at) / Fold change /veh VCAN (11755009_s_at) / RFU RHOB (11743442_s_at) / Fold change /veh RHOB (11743442_s_at) / RFU RGS16 (11720943_a_at) / Fold change /veh RGS16 (11720943_a_at) / RFU RGS16 (11720944_at) / Fold change /veh RGS16 (11720944_at) / RFU, VPS4B / Fold change vs veh, VPS4B / RFU, CREB1 / Fold change vs veh, CREB1 / RFU, DNAJC13 / Fold change vs veh, DNAJC13 / RFU, GNAQ / Fold change vs veh, GNAQ / RFU, CDK5R1 / Fold change vs veh, CDK5R1 / RFU, ZRANB3 / Fold change vs veh, ZRANB3 / RFU, CUL4A / Fold change vs veh, CUL4A / RFU, CCNY / Fold change vs veh, CCNY / RFU, UFL1 / Fold change vs veh, UFL1 / RFU, COG3 / Fold change vs veh, COG3 / RFU, DIAPH2 / Fold change vs veh, DIAPH2 / RFU, SKA2 / Fold change vs veh, SKA2 / RFU, AFF3 / Fold change vs veh, AFF3 / RFU, LMF1 / Fold change vs veh, LMF1 / RFU, IPO11 / Fold change vs veh, IPO11 / RFU, DFFB / Fold change vs veh, DFFB / RFU, FOXP1 / Fold change vs veh, FOXP1 / RFU, CARD8 / Fold change vs veh, CARD8 / RFU, STRN3 / Fold change vs veh, STRN3 / RFU, ADK / Fold change vs veh, ADK / RFU, RASSF2 / Fold change vs veh, RASSF2 / RFU, WIPF1 / Fold change vs veh, WIPF1 / RFU, LARP1B / Fold change vs veh, LARP1B / RFU, RASA1 / Fold change vs veh, RASA1 / RFU, RB1 / Fold change vs veh, RB1 / RFU, PPFIA1 / Fold change vs veh, PPFIA1 / RFU, MAT2A / Fold change vs veh, MAT2A / RFU, CCT5 / Fold change vs veh, CCT5 / RFU, WDR92 / Fold change vs veh, WDR92 / RFU, CUX1 / Fold change vs veh, CUX1 / RFU, TTC7A / Fold change vs veh, TTC7A / RFU, TMEM135 / Fold change vs veh, TMEM135 / RFU, DEPTOR / Fold change vs veh, DEPTOR / RFU, CPM / Fold change vs veh, CPM / RFU, DNAJB6 / Fold change vs veh, DNAJB6 / RFU, CACNA2D3 / Fold change vs veh, CACNA2D3 / RFU, DTX4 / Fold change vs veh, DTX4 / RFU, TFCP2 / Fold change vs veh, TFCP2 / RFU, GMCL1 /// GMCL1P1 / Fold change vs veh, GMCL1 /// GMCL1P1 / RFU, AEBP2 / Fold change vs veh, AEBP2 / RFU, SNHG1 /// SNORD22 /// SNORD25 /// SNORD26 /// SNORD27 /// SNORD28 /// SNORD29 /// SNORD31 / Fold change vs veh, SNHG1 /// SNORD22 /// SNORD25 /// SNORD26 /// SNORD27 /// SNORD28 /// SNORD29 /// SNORD31 / Fold change (Aza/veh), C12orf56 (ProbeSet 11735607_a_at) / Fold change (ACY-1035/veh), C12orf56 (ProbeSet 11735607_a_at) / Fold change (Aza/veh), FGFR1OP (ProbeSet 11751329_s_at) / Fold change (ACY-1035/veh), FGFR1OP (ProbeSet 11751329_s_at) / Fold change (Aza/veh), VPS36 (ProbeSet 11739960_a_at) / Fold change (ACY-1035/veh), VPS36 (ProbeSet 11739960_a_at) / RFU SYPL1 (11715823_x_at) / Fold change /veh SYPL1 (11715823_x_at) / RFU IGFBP7 (11715501_s_at) / Fold change /veh IGFBP7 (11715501_s_at) / RFU REEP3 (11722064_at) / Fold change /veh REEP3 (11722064_at) / RFU IGLL1 (11728026_x_at) / Fold change /veh IGLL1 (11728026_x_at): dose or concentration left out as unconfirmed
Conditions: MV-4-11 cells, 48 hours

## Nc1ncn([C@@H]2O[C@H](CO)[C@@H](O)[C@H]2O)c(=O)n1 [azacitidine]
  Fold change /veh ANKRD19P (11752326_a_at): 1.10

Source: article PMC5218480 (PLoS ONE, 2017)
